Source: patent publication US20060084697A1, “Pi3k antagonists as radiosensitizers” (priority 2002, published 2006)

Test system: Akt
Assay: Western blot of radiation-induced Akt phosphorylation in HUVEC
Type: cell-based, human
Conditions: HUVEC
Text: HUVEC cells were obtained from Clonetics and were maintained in EBM-2 medium supplemented with EGM™-2MV SINGLEQUOTS® (Bio-Whittaker, Inc., Walkersville, Md., United States of America). An Eldorado-8 Cobalt-60 teletherapy unit (Atomic Energy of Canada Limited, Mississauga, Ontario, Canada) was used to irradiate endothelial cell cultures at a dose rate of 0.84 Gy per minute. Delivered doses ranging from 0 to 12 Gy were verified by use of thermoluminescence detectors.
In order to determine if Akt is phosphorylated in response to irradiation, cultured HUVEC cells were serum starved for 4 hours, exposed to irradiation, and the phosphorylation of Akt was examined in cell extracts by Western blotting. Total cellular protein was extracted after radiation treatment as follows. Cells were counted and then washed with iced-cold PBS twice before the addition of lysis buffer (M-PER™ mammalian protein extraction reagent; Pierce Chemical Company, Rockford, Ill., United States of America; or 20 mM Tris, 150 mM NaCl, 1 mM EDTA, 1% Triton X-100, 2.5 mM sodium pyrophosphate, 1 mM phenylmethylsulphonyl fluoride (PMSF), and […] Leupeptin (Roche Molecular Biochemicals, Indianapolis, Ind., United States of America)). Protein concentrations were quantified using the Biorad method (Bradford, 1976). 50 μg protein was loaded into each well of an 8% sodium dodecyl […]-polyacrylamide gel electrophoresis (SDS-PAGE) gel and separated by electrophoresis. The proteins were subsequently transferred onto 0.45 μm nitrocellulose membranes. Membranes were blocked by incubation for 2 hours at room temperature in phosphate buffered saline-Triton (PBST: 0.9% NaCl, 0.3% Triton X-100, pH 7.4) containing 10% nonfat dry milk.
The presence of Akt protein on the membrane was determined as follows. The membranes were incubated with a 1:1000 dilution of rabbit antibody directed against either phosphorylated (Ser473) or non-phosphorylated human Akt overnight at 4° C. Rabbit antibodies were obtained from Cell Signaling Technology, Beverly, Mass., United States of America. The blots were then washed with PBST to remove unbound rabbit antibodies. The washed blots were then incubated for 1 hour at room temperature with a donkey anti-rabbit IgG secondary antibody (Amersham Biosciences, Piscataway, N.J., United States of America) diluted 1:1000 in PBST. The blots were again washed with PBST to remove unbound donkey antibodies. The presences of both phosphorylated and non-phosphorylated human Akt were determined by chemiluminescent detection of donkey anti-rabbit/rabbit anti-human Akt complexes using the ECL™ detection system (Amersham Biosciences) according to the manufacturer's protocol, followed by autoradiography. […]

Compound: O=c1cc(N2CCOCC2)oc2c(-c3ccccc3)cccc12 [LY294002, 2-(4-Morpholinyl)-8-phenyl-4H-1-benzopyran-4-one]
- total Akt levels (wortmannin 4 nM or LY294002 2 μM): no effect
- Akt phosphorylation following irradiation (wortmannin 4 nM or LY294002 2 μM added 30 minutes prior to irradiation, 3 Gy): strong inhibition
